2 compounds from PMC6039436, “Radiobrominated benzimidazole-quinoline derivatives as Platelet-derived growth factor receptor beta (PDGFRβ) imaging probes” (Scientific Reports, 2018) can be followed below.

The test system of one data set is BxPC3-luc tumor. The data set is described as follows: In vivo blocking study in tumor-bearing mice. The arrangement: species or system BALB/c nu/nu mice. Conditions: 1 h postinjection. Here is the method: The tumor uptake of both the control and blocking groups was 1.61 ± 0.24 and 0.96 ± 0.20% ID/g, respectively. Thus, the figures are shown as not only % ID/g but also as tumor-to-blood ratio.
Figure 7 (a) Tumor uptake and (b) tumor/blood uptake ratios of [^77Br]2 and [^125I]4 at 1 h postinjection with 1 (40 mg/kg) (blocking group) or no treatment control group. Data were presented as means ± SD for three or four mice. Significance was determined using an unpaired Student’s t-test (^*p < 0.05, ^**p < 0.01).
For in vivo blocking studies, the tumor-bearing mice were intraperitoneally injected with 200 µL of 1 (40 mg/kg in 15% ethanol and 85% water) 1 h before intravenous injection of 100 µL of saline solution containing [^77Br]2 and [^125I]4 or [^77Br]3 and [^125I]5 (74 kBq, respectively), 1% tween-80 and 10% ethanol. At 1 h postinjection of radiotracers, the mice were sacrificed.
Tissues in mice were resected and weighed. The radioactivity of the tissues was counted by a gamma counter and counts were corrected for background radiation. The data were expressed as percent injection dose per gram tissue (%ID/g).

Data set [1] is described as follows: n-octanol/phosphate buffer partition coefficient. Format: physicochemical. Conditions: n-octanol / 0.1 M phosphate buffer pH 7.4; read-out: n-octanol/phosphate buffer partition coefficient (log P). As for the experimental part: The n-octanol/phosphate buffer partition coefficients of [^77Br]2 were 2.36 ± 0.06 which were lower than [^77Br]3 (3.02 ± 0.04). These values are lower than radioiodinated compounds, [^125I]4 and [^125I]5 at 2.71 ± 0.03 and 3.19 ± 0.17, respectively.
Partition coefficients of [^77Br]2 and [^77Br]3 into n-octanol and 0.1 M phosphate buffer (PB) pH 7.4 were determined using the method described previously. The measurement was performed in quadruplicate. The partition coefficient was determined by calculating the ratio of cpm/mL of n-octanol to that of buffer and expressed as log P. Radioactivity of each layer were counted by a gamma counter.

Another data set concerns BxPC3-luc cells. As to the kind of experiment: In vitro blocking study. The data set is classed as cell-based. The conditions noted are these: inhibitor 1, 2 or 3 at 10 µM, 10 min pretreatment. Here is the method:
Blocking studies using 1, 2, and 3 were performed (Fig. 6). Pretreatment of an excess amount of 1 or 2 decreased uptakes of [^77Br]2 in BxPC3-luc cells. The uptake of [^77Br]3 was inhibited by a pretreatment using 1 or 3 in the same way.
Figure 6 In vitro blocking studies of (a) [^77Br]2 and (b) [^77Br]3 in BxPC3-luc and MCF7 cells. Data were presented as mean ± SD for three samples. Significance was determined using a one-way ANOVA followed by Dunnett’s post hoc test (^*p < 0.001, vs control [^77Br]2 or [^77Br]3).
For in vitro blocking experiment, inhibitor (1, 2, or 3 with final concentration 10 µM) in 1 mL of medium without FBS was added to wells containing 2 × 10^5 cells/well. After 10 min incubation, [^77Br]2 or [^77Br]3 (3.7 kBq/well) in 1 mL of medium without FBS was added to each well. Radioactivity and protein concentration in the cells were determined by the same method above-mentioned.

Consider `COCCOc1ccc2c(c1)ncn2-c1ccc2c([77Br])ccc(N3CCC(N)CC3)c2n1` [[^77Br]2, [^77Br]1-{5-Bromo-2-[5-(2-methoxyethoxy)-1H-benzo[d]imidazol-1-yl]quinoline-8-yl}piperidin-4-amine], for which the “Tumor-to-blood ratio, blocking group vs control” value in the data set with BxPC3-luc tumor (pretreatment with 1 (40 mg/kg)) is given as “significantly reduced”. In the data set with BxPC3-luc tumor (pretreatment with 1 (40 mg/kg, intraperitoneal, 1 h before)), the “Tumor uptake, blocking group” value was 0.96 ± 0.20 % ID/g. Also, in data set [1], the logP is 2.36 ± 0.06. In addition, the “Uptake in BxPC3-luc cells after pretreatment with excess inhibitor” value in the data set on BxPC3-luc cells was “decreased”.
As to `COCCOc1ccc2c(c1)ncn2-c1ccc2cccc(N3CCC(NC(=O)c4cccc([77Br])c4)CC3)c2n1` [[^77Br]3, [^77Br]-N-3-bromobenzoyl-1-{2-[5-(2-methoxyethoxy)-1H-benzo[d]imidazol-1-yl]quinolin-8-yl}-piperidin-4-amine], in data set [1], the logP stood at 3.02 ± 0.04. The “Uptake in BxPC3-luc cells after pretreatment with excess inhibitor” value in the data set on BxPC3-luc cells is given as “inhibited”.
